For the molecule `O=S(=O)(NCCN1CCOCC1)C(F)(F)F`, the melting point (usually the temperature, or range, at which the solid turns liquid) lay in the range of 106 to 108 °C. The value for `Fc1ccc(C2OC(=S)OC2(Cn2cncn2)c2ccc(Cl)cc2Cl)cc1` (stereo not given) was 169 to 170 °C.

As to `Cc1ccc(OC(=O)c2cc3cc(S(=O)(=O)N(C)C)c(Cl)c(Cl)c3o2)cc1`, the melting point lay within 176 to 177 °C.

Take `Cc1nc(N2CCc3ccsc3CC2)c([N+](=O)[O-])c(=O)[nH]1`: the melting point was greater than 200 °C. The value for `CN(C)Cc1nnc2n1-c1ccc(Cl)cc1N(c1ccccc1)C(=O)C2` was 232 to 234 °C; that for `CCS(=O)(=O)N[C@H](C(=O)NCc1ccc(OCC#Cc2ccc(Cl)cc2)c(OC)c1)C(C)C` was 162 to 163 °C; that for `Cc1ccc(C2=NOC(c3cc(Cl)cc(Cl)c3)(C(F)(F)F)C2)cc1Cl` (stereo not given) was 97 to 99 °C. The value for `NS(=O)c1ncnc2c1ccn2C1CC(O)C(CO)O1` (stereo not given) was 170 to 172 °C; that for `CC(C)(C)OC(=O)N[C@@H](Cc1ccc(-c2ccccc2)cc1)C(=O)O` was 122 to 123 °C; that for `Cc1ccc(S(=O)(=O)N2CCC(C#N)(c3ccc(Cl)cc3)CC2)cc1` was 202 to 206 °C. The value for `CN1C(=O)N(c2ccc(Cl)cc2)S(=O)(=O)c2ccc(O)cc21` was greater than 250 °C. Turning to `CCn1ncc2c1ncc1c(=O)[nH]c3cc(C)nn3c12`, the melting point lay in the range of 285 to 286 °C. The value for `COc1ccc(C(=O)CSc2ccccc2)cc1` was 83 to 85 °C; that for `CCOC(=O)C1=C(COCC(N)=S)NC(C)=C(C(=O)OC)C1c1ccccc1Cl` (stereo not given) was 149 to 150 °C; that for `CC(C)(C)c1cc(C2=Cc3cc(-c4ccccc4)ccc3C2)cc(C(C)(C)C)c1` was 122 to 123 °C. The value for `COc1nc(N)nc(-c2ccc(S(C)(=O)=O)cc2)c1-c1ccc(=O)n(C(C)C)n1` was 148 to 151 °C; that for `Cc1oc(-c2ccccc2)nc1COc1ccc2cc(C/C=C/O)oc2c1` was 143 to 144 °C. The figure for `CCOP(=O)(Cc1cccc(NC(=O)C2=Cc3cc(C4CCCCC4)ccc3CC2)c1)OCC` is 54 to 56 °C. `CC(O)c1cccc(-c2ccc3nc(-c4ccc(Cl)cc4)cn3c2)c1` (stereo not given) gave a melting point of 168 to 170 °C. In the case of `O=C(O)c1ccc(OCCC(c2ccccc2)(c2ccccc2)c2ccccc2)cc1`, the melting point was in the range of 201 to 202 °C. The value for `CCCC(=Cc1cccs1)[N+](=O)[O-]` was 25 to 25.5 °C; that for `CCOc1cc(-c2nnc3c4ccccc4c(OCc4ncnn4C)nn23)no1` was 223 to 225 °C. The figure for `Nc1cc(-n2cc(C(=O)O)c(=O)c3cc(F)c(Cl)nc32)c(F)cc1F` is greater than 270 °C; for `COC(=O)c1ccc(Cl)c(CN2CCN(C)C2=O)c1Cl` it is 59 °C. The value for `CC(C)C[C@H](O)C(=O)N[C@@H](C)C(=O)N[C@@H]1C(=O)NCCS[C@@H]1c1ccccc1` was 93 to 99 °C; that for `CC(=O)c1cccc(-c2ccc(O)cc2)c1` was 146 to 149 °C; that for `CCOC(=O)c1ccc(NCCCCCCOc2ccccc2)cc1` was 105 to 108 °C. Take `CN(C)c1ccc(N=Nc2ccc(C(=O)Nc3ccc4[nH]nnc4c3)cc2)cc1`: the melting point is 246 °C. The figure for `CC(Cc1c[nH]c2ccc(F)cc12)C(=O)O` (stereo not given) is 112 to 113 °C; for `CCCc1c(OCc2ccc(C(=O)O)cc2OC)ccc(C(C)=O)c1O` it is 248 to 250 °C; for `O=C(O)CCCC(=O)NCc1ccccc1` it is 83 to 84 °C. The figure for `Cc1c(C)c(N2CCN(c3nccs3)CC2)c(C)c2c1OC(C)(C)C2` is 150 to 151 °C; for `O=C(CO/N=C(\C(=O)O)c1ccco1)NOC(c1ccccc1)c1ccccc1` it is 138 to 140 °C; for `CCn1c2cc(Cl)ccc2c2oc(C(=O)Cl)cc21` it is 137 to 138 °C. The figure for `COc1ccc(-n2ncc(C(=O)O)c2Cl)cc1` is 241 to 242 °C.

(Values after a melting point compilation (Tetko et al.; mined from patent text by program, amines drawn as free bases though some values may be those of a salt).)
